Results: patent US20160137639A1, “TRIAZOLE-ISOXAZOLE COMPOUND AND MEDICAL USE THEREOF” (JAPAN TOBACCO INC., priority 2012, published 2016)

These compounds were tested against T1, human RORγ (Homo sapiens, UniProt P51449) (assay: Luciferase reporter gene assay of inhibitory effect against RORγ transcriptional activity (GAL4-hRORγ plasmid in CHO cells)). Conditions: read-out: LUC EC50 (μM) hRORg.
T1 construct: human, NM_005060.3 and from Ser253 to Lys518; expressed in transfected cells; host or cells: CHO cells (transient co-transfection with pG5-Luc reporter)
T1 sequence (P51449 253-518): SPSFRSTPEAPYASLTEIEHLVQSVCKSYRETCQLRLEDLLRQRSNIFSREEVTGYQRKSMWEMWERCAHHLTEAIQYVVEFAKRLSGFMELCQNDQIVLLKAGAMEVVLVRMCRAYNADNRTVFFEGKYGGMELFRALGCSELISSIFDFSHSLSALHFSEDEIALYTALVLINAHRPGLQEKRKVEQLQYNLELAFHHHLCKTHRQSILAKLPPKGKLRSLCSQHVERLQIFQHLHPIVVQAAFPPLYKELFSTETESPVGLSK
Format: cell-based
Protocol: (§1) In vitro assay of inhibitory effect against RORγ transcriptional activity
(§2) Inhibitory effect of test article on transcriptional activity of RORγ was measured by means of the following luciferase reporter gene assay.
(§3) A cDNA encoding human and mouse RORγ ligand binding domain (LBD) were obtained based on the reported sequences (Genebank accession number and sequence: human, NM_005060.3 and from Ser253 to Lys518; mouse, NM_011281.2 and from Ile251 to Lys516).
(§4) The cDNA of human RORγ or mouse RORγ was inserted into pFA-CMV vector (Strategene), which expresses GAL4-DNA binding domain fusion protein.
(§5) The resulting plasmids are hereinafter referred to as GAL4-hRORγ plasmid and GAL4-mRORγ plasmid, respectively.
(§6) Human or mouse GAL4-RORγ plasmid was transiently co-transfected into Chinese hamster ovary cells (CHO cells) with […] plasmid, a reporter plasmid expressing firefly luciferase depending on GAL4.
(§7) TransIT CHO transfection reagent (Mirus) was used to co-transfect human or mouse GAL4-RORγ plasmid into CHO cells with pG5-Luc plasmid.
(§8) One day before the assay, CHO cells were suspended in HAM F-12 Nutrient medium containing 10 v/v % fetal bovine serum and seeded at 6×10^6 cells per 175 cm^2 cell culture flask.
(§9) Fifty four micro litters of Transit-CHO reagent was added into a 15 ml tube containing 1.16 ml of HAM F-12 Nutrient medium without fetal bovine serum and incubated at room temperature for 10 min.
A total 36 uL plasmid solution containing the GAL4-hRORγ plasmid (400 ng), pG5-Luc plasmid (9000 ng) and pcDNA3 plasmid (8600 ng) were added into the tube and mixed gently.
(§10) The mixture was incubated at room temperature for 10 min.
(§11) Nine micro litters of CHO Mojo Reagent was then added into each tube and mixed gently. The mixture was incubated at room temperature for 10 min.
(§12) The resultant transfection reagent was applied to the cell culture.
(§13) After incubation at 37° C., 5% CO2 for 4 hr, the transfected CHO cells were harvested by a trypsin treatment.
(§14) The collected cells were resuspended in HAM F-12 Nutrient medium supplemented with 10 v/v % fetal bovine serum and plated into a 384-well-white plate at 8,000 cells/50 uL/well.
(§15) The plate was incubated at room temperature for 1 hour and then further incubated at 37° C., 5% CO2 for 3 hours.
(§16) The test articles were dissolved in dimethylsulfoxide (DMSO) to obtain a concentration of 10 mmol/L. The resulting solution was diluted with the medium just before use and added to the cells in the plate to prepare 8 different concentrations of the test article.
(§17) The final concentration of DMSO was 0.1 v/v % After the addition of the test articles, the cells were incubated at 37° C., 5% CO2 for 2 days.
(§18) RORγ transcriptional activity was detected as the intracellular luciferase activity using SteadyLite HTS Reporter Gene Assay System (Perkin Elmer).
(§19) StedyLite Reagent was diluted five-fold into a solution containing 10 mM Tricine, 0.2% w/v BSA, 0.02% v/v Tween-20 to obtain the luciferase substrate solution.
(§20) After the measurement of the cell viability using Resazurin, the culture media in the 384 well-plate were removed. Then the Luc substrate solution was added into each well.
(§21) After the incubation at room temperature for 10 minutes, luminescence of each well was measured by a microplate reader.
(§22) The luciferase activity derived from the luminescence count in the vehicle-control well treated with 0.1% DMSO alone was defined as 100%, and the luciferase activity in the test article was calculated as a percentage (%-of-control) based on the value of the vehicle-control.
(§23) EC50 value of test article was calculated by curve fitting with GraphPad Prism.
(§24) The luminescence counts at the concentration of the test article where the cytotoxicity was observed were excluded from the data analysis.

Row | Structure (SMILES) | EC50 [µM]
1 | CC(=O)N1C[C@H](C(=O)Nc2ccc(C)cc2C)[C@@H](c2nnc([C@H]3C[C@@H](CC(C)(C)C)C3)n2C2CC2)C1 [Example F-461] | < 3
2 | Cc1c(Cl)cccc1NC(=O)CCc1nnc(CCNC(C)C)n1C1CC1 [Example F-171] | > 3
3 | CC(C)CCc1nnc(CCC(=O)NC2CCc3ccccc32)n1C1CC1 (racemic) [Example F-83] | > 3
4 | CC(C)CCc1nnc(CCC(=O)NCc2cccc3cn[nH]c23)n1C1CC1 [Example F-150] | > 3
5 | CCn1c(CCC(=O)Nc2ccc(C)cc2C)nnc1CCC(C)(C)C [Example F-47] | > 3
6 | Cc1ccc(NC(=O)CC(Cc2nc(=O)o[nH]2)c2nnc([C@H]3C[C@@H](CC(C)C)C3)n2C2CC2)c(C)c1 (mixture of isomers) [Example F-472] | < 3
7 | COc1cc(C)ccc1CNC(=O)CCc1nnc(CCC(C)C)n1C1CC1 [Example F-148] | < 3
8 | Cc1ccc(NC(=O)C[C@H](CN2CC(=O)NC2=O)c2nnc([C@H]3C[C@@H](CC(C)C)C3)n2C2CC2)c(C)c1 [Example F-479] | < 3
9 | Cc1ccc(NC(=O)C[C@H](CCC(=O)O)c2noc(-c3cn(CCC(C)(C)C)nc3C(F)(F)F)c2C2CC2)c(F)c1 [Example E-19] | > 3
10 | CC(C)CCc1nnc(CCC(=O)NCc2cccc3[nH]ncc23)n1C1CC1 [Example F-128] | > 3
11 | Cc1c(Cl)cccc1NC(=O)CCc1nnc(CNC(=O)C(C)C)n1C1CC1 [Example F-221] | > 3
12 | CCn1c(CCC(=O)Nc2cccc(Cl)c2C)nnc1CCC1CCCC1 [Example F-54] | < 3
13 | COc1c(CNC(=O)CCc2nnc(CCC(C)C)n2C2CC2)ccc(C)c1C [Example F-262] | > 3
14 | CC(=O)N1C[C@H](C(=O)Nc2ccc(C)cc2C)[C@@H](c2nnc(CCCC(C)(C)C)n2CC(F)(F)F)C1 [Example F-392] | < 3
15 | Cc1ccc(NC(=O)CC(c2nnc([C@H]3C[C@@H](CC(C)C)C3)n2C2CC2)C2CN(C(=O)OCc3ccccc3)C2)c(C)c1 (mixture of isomers) [Example F-459] | < 3
16 | CCn1c(CCC(=O)Nc2ccc(C)cc2C)nnc1CCC(C)C [Example F-51] | > 3
17 | Cc1ccc(NC(=O)CCc2nnc(CCCC(C)C)n2C2CC2)c(C)c1 [Example F-215] | < 3
18 | Cc1ccc(C(N)=O)cc1NC(=O)CCc1nnc(CCC(C)C)n1C1CC1 [Example F-154] | > 3
19 | Cc1ccc(C#N)cc1NC(=O)CCc1nnc(CCC(C)C)n1C1CC1 [Example F-143] | > 3
20 | Cc1ccc(CNC(=O)CCc2nnc(CCC(C)C)n2C2CC2)cc1 [Example F-61] | > 3

Each compound was assayed against T2, mouse RORγ (Mus musculus, UniProt P51450) (assay: Luciferase reporter gene assay of inhibitory effect against RORγ transcriptional activity (GAL4-mRORγ plasmid in CHO cells)). Conditions: read-out: LUC EC50 (μM) mRORg.
T2 construct: mouse, NM_011281.2 and from Ile251 to Lys516; expressed in transfected cells; host or cells: CHO cells (transient co-transfection with pG5-Luc reporter)
T2 sequence (P51450 251-516): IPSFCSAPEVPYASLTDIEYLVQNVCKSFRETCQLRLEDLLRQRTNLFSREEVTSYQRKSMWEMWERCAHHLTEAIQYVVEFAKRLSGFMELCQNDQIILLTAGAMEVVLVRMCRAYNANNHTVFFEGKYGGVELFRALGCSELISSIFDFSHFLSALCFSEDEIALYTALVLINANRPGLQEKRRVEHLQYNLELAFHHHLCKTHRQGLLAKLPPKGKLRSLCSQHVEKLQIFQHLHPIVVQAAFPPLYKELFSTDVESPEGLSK
Format: cell-based
Protocol: as §1, §2, §3, §4, §5, §6, §7, §8, §9, §10, §11, §12, §13, §14, §15, §16, §17, §18, §19, §20, §21, §22, §23, §24

Row | Structure (SMILES) | EC50 [µM]
21 | CC(=O)N1C[C@H](C(=O)Nc2ccc(C)cc2C)[C@@H](c2nnc([C@H]3C[C@@H](CC(C)(C)C)C3)n2C2CC2)C1 [Example F-461] | < 3
22 | Cc1c(Cl)cccc1NC(=O)CCc1nnc(CCNC(C)C)n1C1CC1 [Example F-171] | > 3
23 | CC(C)CCc1nnc(CCC(=O)NC2CCc3ccccc32)n1C1CC1 (racemic) [Example F-83] | > 3
24 | CC(C)CCc1nnc(CCC(=O)NCc2cccc3cn[nH]c23)n1C1CC1 [Example F-150] | > 3
25 | CCn1c(CCC(=O)Nc2ccc(C)cc2C)nnc1CCC(C)(C)C [Example F-47] | < 3
26 | Cc1ccc(NC(=O)CC(Cc2nc(=O)o[nH]2)c2nnc([C@H]3C[C@@H](CC(C)C)C3)n2C2CC2)c(C)c1 (mixture of isomers) [Example F-472] | < 3
27 | COc1cc(C)ccc1CNC(=O)CCc1nnc(CCC(C)C)n1C1CC1 [Example F-148] | < 3
28 | Cc1ccc(NC(=O)C[C@H](CN2CC(=O)NC2=O)c2nnc([C@H]3C[C@@H](CC(C)C)C3)n2C2CC2)c(C)c1 [Example F-479] | < 3
29 | Cc1ccc(NC(=O)C[C@H](CCC(=O)O)c2noc(-c3cn(CCC(C)(C)C)nc3C(F)(F)F)c2C2CC2)c(F)c1 [Example E-19] | > 3
30 | CC(C)CCc1nnc(CCC(=O)NCc2cccc3[nH]ncc23)n1C1CC1 [Example F-128] | > 3
31 | Cc1c(Cl)cccc1NC(=O)CCc1nnc(CNC(=O)C(C)C)n1C1CC1 [Example F-221] | > 3
32 | CCn1c(CCC(=O)Nc2cccc(Cl)c2C)nnc1CCC1CCCC1 [Example F-54] | < 3
33 | COc1c(CNC(=O)CCc2nnc(CCC(C)C)n2C2CC2)ccc(C)c1C [Example F-262] | > 3
34 | CC(=O)N1C[C@H](C(=O)Nc2ccc(C)cc2C)[C@@H](c2nnc(CCCC(C)(C)C)n2CC(F)(F)F)C1 [Example F-392] | < 3
35 | Cc1ccc(NC(=O)CC(c2nnc([C@H]3C[C@@H](CC(C)C)C3)n2C2CC2)C2CN(C(=O)OCc3ccccc3)C2)c(C)c1 (mixture of isomers) [Example F-459] | < 3
36 | CCn1c(CCC(=O)Nc2ccc(C)cc2C)nnc1CCC(C)C [Example F-51] | > 3
37 | Cc1ccc(NC(=O)CCc2nnc(CCCC(C)C)n2C2CC2)c(C)c1 [Example F-215] | < 3
38 | Cc1ccc(C(N)=O)cc1NC(=O)CCc1nnc(CCC(C)C)n1C1CC1 [Example F-154] | > 3
39 | Cc1ccc(C#N)cc1NC(=O)CCc1nnc(CCC(C)C)n1C1CC1 [Example F-143] | > 3
40 | Cc1ccc(CNC(=O)CCc2nnc(CCC(C)C)n2C2CC2)cc1 [Example F-61] | > 3
